The IC50 is the concentration at which inhibition is half-maximal. A low value points to greater potency in that assay.

Results on three molecules are retold here after patent US20150141411A1, “SUBSTITUTED 3,4-DIHYDRO-2H-PYRIDO[1,2-A]PYRAZINE-1,6-DIONE DERIVATIVES USEFUL FOR THE TREATMENT OF (INTER ALIA) ALZHEIMER'S DISEASE” (Janssen Pharmaceuticals, Inc., priority 2012, published 2015).

Assay [1] has as its target T1, γ-secretase (Homo sapiens, UniProt P49768).
T1 construct: endogenous in cells; host or cells: SKNBE2 human neuroblastoma cells (carrying hAPP 695 wild type as substrate)
As to the kind of experiment: Screening for γ-secretase-modulating activity: Aβ42 in supernatant of SKNBE2 cells carrying hAPP 695 wild type (Alphalisa). The class given is cell-based. The note with it: SKNBE2 human neuroblastoma cells carrying hAPP 695 wild type, overnight incubation, Aβ42 in cell supernatant. The essentials:
(§1)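 SKNBE2 neuroblastoma cells expressing wild-type hAPP 695 plated at 10^4 cells/well in Ultraculture with test compound, incubated overnight at 37° C. Aβ42 (C-terminal/N-terminal antibody pair) and Aβtotal (N-terminal/4G8 pair) in supernatant quantified by AlphaLISA. IC50 from 4-parameter fit of percent of compound-free control.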

A further assay concerns Aβ38. Put plainly: In vivo efficacy: brain soluble Aβ38 in non-transgenic rodents (MSD electrochemiluminescence multiplex). The settings on record: Mus musculus, po, 4 h, dose 30 mg/kg oral dosing, brain soluble fraction, animals sacrificed after 4 h, untreated animals (Ctrl) set at 100, read-out: Aβ38 (% vs Ctrl)_Mean. Also on record: species or system mouse. The text has this:
To determine whether acute administration of an Aβ38 increasing agents would increase Aβ38 levels in vivo, non-transgenic rodents, e.g. mice or rats were used. Animals treated with the Aβ38 increasing agents were examined and compared to those untreated or treated with vehicle and brain levels of soluble Aβ42, Aβ40, Aβ38, and Aβ37 were quantitated by MSD electrochemiluminescence detection technology. Treatment periods varied from hours (h) to days and were adjusted based on the results of the Aβ38 increase once a time course of onset of effect could be established.
A typical protocol for measuring Aβ38 increase in vivo is shown but it is only one of many variations that could be used to optimize the levels of detectable Aβ. For example, Aβ38 increasing agents were formulated in 20% of Captisol® (a sulfobutyl ether of β-cyclodextrin) in water or 20% hydroxypropyl βcyclodextrin. The Aβ38 increasing agents were administered as a single oral dose or by any acceptable route of administration to overnight fasted animals. After 4 h, the animals were sacrificed and Aβ38 levels were analysed.
Blood was collected by decapitation and exsanguinations in EDTA-treated collection tubes. Blood was centrifuged at 1900 g for 10 minutes (min) at 4° C. and the plasma recovered and flash frozen for later analysis. The brain was removed from the cranium and hindbrain. The cerebellum was removed and the left and right hemisphere were separated. The left hemisphere was stored at −18° C. for quantitative analysis of test compound levels. The right hemisphere was rinsed with phosphate-buffered saline (PBS) buffer and immediately frozen on dry ice and stored at −80° C. until homogenization for biochemical assays.
Mouse brains from non-transgenic animals were resuspended in 8 volumes of 0.4% DEA (diethylamine)/50 mM NaCl containing protease inhibitors (Roche-11873580001 or 04693159001) per gram of tissue, e.g. for 0.158 g brain, add 1.264 ml of 0.4% DEA. All samples were homogenized in the FastPrep-24 system (MP Biomedicals) using lysing matrix D (MPBio #6913-100) at 6 m/s for 20 seconds. Homogenates were centrifuged at 20800×g for 5 min and supernatants collected. Supernatants were centrifuged at 221.300×g for 50 min. The resulting high speed supernatants were then transferred to fresh eppendorf tubes. Nine parts of supernatant were neutralized with 1 part 0.5 M Tris-HCl pH 6.8 and used to quantify Aβ.
To quantify the amount of Aβ42, Aβ40, Aβ38, and Aβ37 in the soluble fraction of the brain homogenates, simultaneous specific detection of Aβ42, Aβ40, Aβ38, and Aβ37 was performed using MSD's electro-chemiluminescence multiplex detection technology. In this assay purified monoclonal antibodies specific for Abeta37 (JRD/Aβ37/3), Abeta38 (J&JPRD/Aβ38/5), Abeta40 (JRF/cAβ40/28), and Abeta42 (JRF/cAβ42/26) were coated on MSD 4-plex plates. Briefly, the standards (a dilution of synthetic Aβ42, Aβ40, Aβ38, and Aβ37) were prepared in 1.5 ml Eppendorf tube in Ultraculture, with final concentrations ranging from 10000 to 0.3 pg/m. The samples and standards were co-incubated with Sulfo-tag labelled JRF/rAβ/2 antibody to the N-terminus of Aβ as detector antibody. 50 μl of conjugate/sample or conjugate/standards mixtures were then added to the antibody-coated plate. The plate was allowed to incubate overnight at 4° C. in order to allow formation of the antibody-amyloid complex. Following this incubation and subsequent wash steps the assay was finished by adding read buffer according to the manufacturer's instructions (MesoScale Discovery, Gaitherburg, Md.).
The SULFO-TAG emits light upon electrochemical stimulation initiated at the electrode. MSD Sector instrument SI6000 was used for signal read-out.
In this model a Aβ38 increase compared to untreated animals would be advantageous, in particular a Aβ38 increase with at least 10%, more in particular a Aβ38 increase with at least 20%. […]

In assay [2] the target is T1, γ-secretase. As to the kind of experiment: Screening for γ-secretase-modulating activity: Aβtotal in supernatant of SKNBE2 cells carrying hAPP 695 wild type (Alphalisa). The note with it: SKNBE2 human neuroblastoma cells carrying hAPP 695 wild type, overnight incubation, Aβtotal in cell supernatant. The class given is cell-based. The essentials: as §1
(In general: In Alpha technology, singlet oxygen from a donor bead excites a nearby acceptor bead.)

Structures are written as SMILES.

On to `Cc1cn(-c2ccc3n(c2=O)CCN(C(C)c2cn(C)c4cc(F)c(Cl)cc24)C3=O)cn1` (single isomer, unassigned) [compound 185], for which the IC50 on γ-secretase [1] is 20 nM; at γ-secretase [2], 5890 nM. In addition, the response vs control in vivo at 30 mg/kg with Aβ38 stood at 170%.
Consider `COc1cccc(CN2C(=O)c3ccc(-n4cnc(C)c4)c(=O)n3C[C@H]2C)c1` [compound 132], for which the IC50 against γ-secretase [1] is 2140 nM; on γ-secretase [2] it was above 10000 nM. For the same molecule, in the assay with Aβ38, the response vs control in vivo at 30 mg/kg was 84%.
With `Cc1cn(-c2ccc3n(c2=O)C[C@@H](C)N(Cc2cc(CC4CC4)cc(C(F)(F)F)c2)C3=O)cn1` [compound 110], the IC50 against γ-secretase [1] is 40 nM; against γ-secretase [2], above 10000 nM. In the assay with Aβ38, the response vs control in vivo at 30 mg/kg is 102%.
